According to patent US9944721B2, “Polysialic acid and use for treatment of neurodegenerative and neuroinflammatory diseases” (RHEINISCHE FRIEDRICH-WILHELMS UNIVERSITÄT BONN, priority 2013, dated 2018):

Experiments:
[1] = tested on: human microglial line derived from induced pluripotent stem cells (expressing Siglec-11); assay: MTT cell viability of human microglia treated with sialic acid forms; type: cell-based
Experimental: A human microglial line derived from induced pluripotent stem cells as described in WO 2010/125110 was used to study the effect of sialic acid forms with different chain length. Human microglial cells were cultured on 5 μg/ml poly-L-lysin (PLL, Sigma)-coated dishes in N2-medium containing DMEM/F12 culture medium (Gibco) supplemented with 1% N2 (Invitrogen), 0.48 mM L-glutamine (Gibco) and optionally 100 μg/ml penicillin/streptomycin (Gibco). Cells were cultured with high density and splitted 1:2 when required.
The effect of different length and fractions of oligosialic acids and polysialic acids on the human microglial lines were analyzed by determination of cell viability normalized to the cell number and after treatment with monomeric sialic acid (SA, molecular weight of 0.3 kDa, Nacalai Tesque ING, Japan) and sialic acids consisting of 3 monomers (Tri-SA; molecular weight of 0.9 kDa, Nacalai Tesque ING, Japan) and sialic acids consisting of 6 monomers (Hexa-SA; molecular weight of 1.9 kDa, Nacalai Tesque ING, Japan), PSA with a number of sialic acid monomers between 14 and 26 (PSA-20; low molecular weight of PSA between 4.3 and 8 kDa for >90% of the substance) and PSA with a length between 46 and 110 of sialic acid monomers (PSA-60; medium molecular weight of PSA between 14.2 and 34 kDa for >90% of the substance).
The microglial cells were cultured in medium as described above and treated in culture with the different sialic acid forms.
Cell viability was determined by the MTT (3-(4,5-Dimethylthiazol-2-yl)-2,5-diphenyltetrazolium bromide, Millipore) assay after 24 hours treatment with distinct sialic acid forms with different chain length and normalized to the cell number. The light absorbance of the purple formazan in living cells was determined by a spectrophotometer at a wavelength of 570 nm (Perkin Elmer, Envision Multiplate Reader).

[2] = tested on: human macrophage cell line THP-1; assay: LPS-induced TNF-alpha gene transcription in human macrophages; type: cell-based; conditions: THP-1, LPS 1 μg/ml, 24 hours; 0.15 μM and 0.5 μM; FIG. 5B
Experimental: The human monocyte line THP-1 (ATCC TIB-202) was cultured in RPMI medium with 10% FCS, 1% sodium pyruvate and 1% penicillin/streptomycin (100×) (all Gibco, Invitrogen) in 75 ml cell culture flasks (Sarstedt). For differentiation into tissue macrophages the line was cultured for 3 hours in normal cell culture medium containing 0.5 μM phorbol 12-myristate 13-acetate (Sigma) and afterwards in phorbol 12-myristate 13-acetate free medium for at least 24 hours.
FIG. 5B illustrates the effect of low molecular weight PSA (PSA-20) on the pro-inflammatory cytokine TNF-alpha. The human macrophage cell line THP-1 was treated with lipopolysaccharides (LPS, 1 μg/ml) and PSA-20 (different concentrations) for 24 hours. Gene transcripts for tumor necrosis factor-α a (TNFα) were determined by quantitative RT-PCR and normalized to GAPDH. In detail, RNA isolation was performed using RNeasy Mini Kit (Qiagen) and transcription with the SuperScript First-Strand Synthesis System (Invitrogen). Quantitative RT-PCR with specific oligonucleotides (GAPDH: […] (SEQ ID NO: 1) and […] (SEQ ID NO: 2); TNFα: […] (SEQ ID NO: 3) and […] (SEQ ID NO: 4)) was performed using SYBR green PCR Master Mix with the Mastercycler epgradients S (Eppendorf). Results were normalized to GAPDH. Quantification using the delta-CT method was carried out.

[3] = tested on: humanized Siglec-11 transgenic mice; assay: Septic encephalopathy model: TNF-alpha gene transcripts after repeated systemic LPS; type: in vivo; conditions: 4x LPS plus 4x PSA-20 1 μg per gram body weight i.p., 24 hours after last application
Experimental: Humanized Siglec-11 transgenic mice (Wang Y, 2009, dissertation, University Bonn, uniform resource name: urn:nbn:de:hbz:5N-18095) expressing human Siglec-11 under the Iba1-promoter in microglia and wildtype littermate control mice were used in this experiment. For gene transcript analysis, RNA was isolated from brains with Trizol followed with the RNeasy Mini Kit (Qiagen). Reverse transcription of RNA was performed with SuperScript III reverse transcriptase (Invitrogen) and hexamer random primers (Roche Molecular Biochemicals). Quantitative RT-PCR with specific oligonucleotides was performed with SYBR Green PCR Master Mix (Applied Biosystems) using the ABI 5700 Sequence Detection System (Perkin Elmer) and amplification protocol for the ABI 5700 Sequence Detection System. […] Results were analyzed with the ABI 5700 Sequence Detection System v.1.3 after establishing the reaction efficiency for each primer pair. Quantification using the delta-CT method was carried out.
Mice were either treated intraperitoneally with 4× lipopolysaccharide (LPS from Salmonella abortus equi S-form (ENZO Life Science), 1 μg per gram body weight) or 4×LPS (1 μg per gram body weight) plus 4×PSA-20 (1 μg per gram body weight) or 4×PBS. […] Mice were analyzed 24 hours after the last application.
Gene transcripts for TNF-alpha were determined from the total brain tissue by qRT-PCR at 24 hours after the last application.

poly-(α(2→8)Neu5Ac)n [PSA-20]
metabolic activity of the microglial cells (MTT, normalized to cell number) ([1]; 24 hours treatment, 0.15 μM, 0.5 μM and 1.5 μM, FIG. 2B): did not affect the metabolic activity | Intact viability of human microglia ([1]; summary of Example 3, MTT, 24 hours): Yes | LPS-induced gene transcription of TNF-alpha [2]: reduced | gene transcripts for TNF-alpha in the spleen [3]: No change | gene transcription levels of TNF-alpha in the brain tissue ([3]; Siglec-11 transgenic mice): reduced gene transcription levels
